Key:
male Sprague-Dawley rats = test: Post-Incisional (Brennan) Pain Test; format: in vivo; details: rat, oral; for cumulative pain score, 4 h: 4 h post-dosing; for cumulative pain score, 24 h: 24 h post-dosing
Description: Incisional pain was induced in non-fasted male Sprague-Dawley rats weighing 180-300 g by making a 1-cm plantar incision in the left hind paw and is designed to mimic pain and sensitivity similar to what is reported by patients after surgery. Dosing occurred at the time of incision and spontaneous pain was measured 4 and 24 hours post-dosing using a cumulative pain score. The unrestrained animals were placed on a metal mesh platform and allowed to acclimate for about 15 min/ Each animal was closely observed during a 1-min period repeated every 5 min for 1 h (12 times total). Depending on the position in which the foot was found during the scoring period, a score of 0, 1, or 2 was given. Full weight bearing of the foot (score=0) was present if the skin on the plantar surface of the paw wound was blanched or distorted by the mesh. If the foot was completely off the mesh, or one or more instances of licking or flinching was observed, a score of 2 was recorded and the licking or flinching was noted but not counted. If the plantar surface of the paw touched the mesh without blanching or distorting, a score of 1 was given. The sum of the 12 scores obtained during the 1 h session was calculated (maximum score=24) for each animal. Observations were made during hours 4 and 24. Test articles were administered orally at concentrations of 10, 30 or 100 mg/kg and ketoprofen was administered subcutaneously at a concentration of 10 mg/kg. The control group received the vehicle (sterile water). In Table 6, ‘A’ designates a cumulative pain score of ≤11, ‘B’ designates >11 and ≤16, and ‘C’ designates >16.
The results provided in Table 6 are for oral administration in rats.

adult male C57BL/6 mice = test: Conditioned Place Preference (Abuse) Test; format: in vivo, mouse; details: mouse, in vivo, ip
Description: A conditioned place preference (CPP) model was used to assess the reward properties of compounds of formulae (Ie), or a pharmaceutically acceptable salt of any of the foregoing, in adult male C57BL/6 mice. The CPP model apparatus consisted of a Plexiglas© test unit having three (A, B, C) compartments (9 cm×9 cm×16 cm) configured to allow access to all chambers. Compartments A and C had textually distinct flooring and wall marking. Mice were placed in the middle compartment with free access to the other compartments. On day 1 and 2, the “naive chamber preference” was assessed by placing the animal in the middle chamber twice a day (AM and PM) for 30 min on two consecutive days, with the chamber showing the greatest residence time being called the “preferred chamber”. On “drug pairing days” (days 5, 6, 7 and 8) mice were injected IP with vehicle (50 mM citric acid) in the AM in the preferred chamber and the drug/vehicle in the afternoon in the non-preferred chamber for four consecutive days. On the morning of day 9 (the day after the last drug pairing), the “drug chamber preference” was assessed by placing the mouse (absent any injection) in the middle chamber, with free access to all chambers for 30 minutes. This was repeated five days later (day fourteen), with no intervening drug treatment.
The time spent on days 9 and 14 (e.g. […] respectively after the last drug treatment) in the drug associated chamber was the test datum and is represented in FIG. 1. […] In contrast, there was no increase in the non-preferred chamber residence time when the least-preferred chamber was paired with saline, APAP or test compounds 2 or 28 on either days 9 or 14, or days 0 or 5.

Structure (SMILES) | cumulative pain score, 4 h (male Sprague-Dawley rats; 10 mg/kg) | cumulative pain score, 24 h (male Sprague-Dawley rats; 10 mg/kg) | cumulative pain score, 4 h (male Sprague-Dawley rats; 30 mg/kg) | cumulative pain score, 24 h (male Sprague-Dawley rats; 30 mg/kg) | cumulative pain score, 4 h (male Sprague-Dawley rats; 100 mg/kg) | cumulative pain score, 24 h (male Sprague-Dawley rats; 100 mg/kg) | least preferred (drug associated) chamber residence time (adult male C57BL/6 mice)
Cl.NC12CC(c3nc(C(F)(F)F)cs3)(C1)C2 [Compound 1, 3-(4-(Trifluoromethyl)thiazol-2-yl)bicyclo[1.1.1]pentan-1-amine hydrochloride] | C (>16) | B (>11 and ≤16) | A (a cumulative pain score of ≤11) | A (a cumulative pain score of ≤11) | A (a cumulative pain score of ≤11) | A (a cumulative pain score of ≤11) | –
Cc1sc(C23CC(N)(C2)C3)nc1C(F)(F)F.Cl [Compound 2, 3-(5-Methyl-4-(trifluoromethyl)thiazol-2-yl)bicyclo[1.1.1]pentan-1-amine hydrochloride] | – | – | – | – | – | – | no increase
